{"source": "patent EP0430991B1", "about": "“REAGENT FOR USE IN LD-1 ASSAY” (BOEHRINGER MANNHEIM CORPORATION, priority 1988, dated 1990)", "key": {"[1]": {"test_system": "LD-2,3,4,5 (sample contains LD(2), LD(3), LD(4), and LD(5) isoenzymes with 43% of LD(4))", "assay": "LD isoenzyme inactivation, automated analyzer rate assay (lactate/NAD, 340 nm)", "format": "biochemical, human", "conditions": "Lithium L-Lactate 90 mM, pH 9.6", "description": "A. Materials: • 1. […] LD isoenzymes. […] Patient serum samples were obtained from a local hospital. […] Factor: -10470 C. Manual Procedure Instrument: Spectrophotometer Temperature: 37 degrees C. Wavelength: 340 nm 1. […] Pipette the following reagents in a cuvette:\n3. Mix and equilibrate sample to 37 degrees C. 4. […] Calculate A/min. from 2 to 4 minutes. This is A/min for the sample. 5. […] This is A/min. for the blank. 6. […] F. Experimental Results 1. […] LD-1 isoenzyme was tested at several concentrations. […]\nA. Materials • 1. […] LD isoenzymes: Same as described in Example 1. […] C. Manual Procedure Same as described in Example 1. […]\nA. Materials • 1. […] Patient serum samples are obtained from a local hospital. […] C. Manual Procedure Same as described in Example 1. […] Table"}, "[2]": {"biological_target": "lactate dehydrogenase isoenzyme LD-1, H(4) (Homo sapiens, UniProt P07195)", "assay": "biochemical", "conditions": "for LD-1 ISOENZYME REAGENT (Recovery): Lithium L-Lactate 90 mM, pH 9.6; for activity at 240000 µM: R1: guanadine thiocyanate 240 mM, Lithium L-Lactate 90mM, Tris 112.6 mM, pH 9.5, 37 degrees C", "description": "(§1) A. Materials: • 1. Reagent I. contains Lithium L-Lactate (90mM), guanadine thiocyanate (240 mM), Tris buffer (112.6 mM) at pH 9.5. • 2. Reagent II. contains Na(2)SO(4) (40 mM) and NAD (53.76 mM). Reaction mixture is a combination of 2.0 ml of R-1, 0.5 ml of R-2 which has a final reaction pH of 8.9 • 3. LD isoenzymes. Pure LD-1, LD-2, LD-3 and LD-5 individual isoenzymes were obtained from Aalto of Escondido, CA. Patient serum samples were obtained from a local hospital. B. Procedures Using Automated Analyzer Tests were performed on a Boehringer Mannheim/Hitachi 705 analyzer. The analyzer was given the following parameters: Assay Code: Rate - 20-26 (equivalent to 84.62 seconds to 198.70 seconds) Sample Volume: 12 µl R1 Volume: 400 µl R2 Volume: 100 µl Wavelength 1: 376 nm Wavelength 2: 340 nm Temperature: 37 degrees C. Factor: -10470 C. Manual Procedure Instrument: Spectrophotometer Temperature: 37 degrees C. Wavelength: 340 nm 1. Zero spectrophotometer with distilled or deionized water (DI HOH) 2. Pipette the following reagents in a cuvette:\n(§2) 3. Mix and equilibrate sample to 37 degrees C. 4. Pipette and add 0.5 ml of R2 into sample test tube. Mix and measure optical density change at 340 nm for about 6 minutes. Calculate A/min. from 2 to 4 minutes. This is A/min for the sample. 5. Repeat steps 2 to 4 for the blank using 0.060 ml DI HOH as sample. This is A/min. for the blank. 6. Calculate for U/L (U/L = units of LDH activity per liter) U/L = (A/min Sample - A/min blank) x 1000 x 2.56 6.22 x light path x 0.06 [formula] D. Protocol for the Electrophoretic Analysis • 1. About 630 to 1,000 µl of individual LD-1, LD-2, LD-3, LD-4, LD-5 and abnormal patient serum samples were used in the electrophoretic analysis. • 2. 12 µl sample was added to […] R1 and incubated for 4 minutes at 37 degrees C to inhibit LD-2 to LD-5 to achieve an inhibited sample. • 3. Another 12 µl sample was added to 400 ul of Tris buffer (112.6 mM, pH at 8.9-9.0) and incubated for 4 minutes at 37 degrees C to achieve a control sample. • 4. Both the inhibited and control samples were applied to the Beckman Paragon Gel and the electrophoresis was run according to the Beckman procedure specified for the gel using a Beckman Paragon Electrophoresis instrument from Beckman Instrument. E. Method for Comparison Sixty-eight patient samples with LD-1 activity from 30 to 800 U/L were tested to compare the selectivity of R1 with the immunochemical separation method Roche's Isomune LD-1 reagent was employed for the immunochemical separation. F. Experimental Results 1. LD isoenzymes were tested using the Automated Analyzer procedure described above. […] LD-1 isoenzyme was tested at several concentrations. […]\n(§3) A. Materials • 1. Reagent I: contains Lithium L-Lactate (90 mM), guanidine HCl (240 mM), sodium thiocyanate (240 mM) Tris buffer (119 mM) and Na(2)Co(3) (12.5 mM) at pH 9.6. • 2. Reagent II: contains Na(2)SO(4) (40 mM) and NAD (53.76 mM). Reaction mixture is a combination of 2.0 ml of R-1, 0.5 ml of R-2 which has final reaction pH at 8.9. • 3. LD isoenzymes: Same as described in Example 1. B. Procedures using Automated Analyzer Same as described in Example 1. C. Manual Procedure Same as described in Example 1. […]\n(§4) A. Materials • 1. Reagent I: contains Lithium L-Lactate (90 mM), guanidine-HCL Na(2)Co(3) (12.5mM), Tris buffer (119 mM) at pH 9.6. • 2. Reagent II: contains Na(2)SO(4) (40 mM) and NAD (53.76 Mm). Reaction mixture is a combination of 2.0 ml of R-1, 0.5 ml of R-2 which has final reaction reaction pH at 8.9. • 3. LD isoenzymes: pure LD-1, LD-2, LD-3 and LD-5 individual isoenzymes are obtained from Aalto, Escondido, CA. Patient serum samples are obtained from a local hospital. B. Procedures using Automated Analyzer Same as described in Example 1. C. Manual Procedure Same as described in Example 1. […] Table\n(§5) A. Materials • 1. Reagent I: contains Lithium L-Lactate (90 mM), NaSCN (240 mM) Na(2)Co(3) (12.5 mM), Tris buffer (119 mM) at pH 9.6. • 2."}, "[3]": {"biological_target": "lactate dehydrogenase isoenzyme LD-5, M(4) (Homo sapiens, UniProt P00338)", "assay": "LD isoenzyme inactivation, automated analyzer rate assay (lactate/NAD, 340 nm)", "format": "biochemical", "conditions": "for LD-1 ISOENZYME REAGENT (Recovery): Lithium L-Lactate 90 mM, pH 9.6", "description": "as §1, §2, §3, §4, §5"}, "[4]": {"biological_target": "T1, lactate dehydrogenase isoenzyme LD-2, H(3)M (Homo sapiens, UniProt P00338+P07195)", "T1 construct": "purchased Aalto, Escondido, CA", "assay": "LD isoenzyme inactivation, automated analyzer rate assay (lactate/NAD, 340 nm)", "format": "biochemical", "conditions": "for LD-1 ISOENZYME REAGENT (Recovery): Lithium L-Lactate 90 mM, pH 9.6", "description": "as §1, §2, §3, §4, §5"}, "[5]": {"biological_target": "T2, lactate dehydrogenase isoenzyme LD-3, H(2)M(2) (Homo sapiens, UniProt P00338+P07195)", "T2 construct": "purchased Aalto, Escondido, CA", "assay": "LD isoenzyme inactivation, automated analyzer rate assay (lactate/NAD, 340 nm)", "format": "biochemical", "conditions": "Lithium L-Lactate 90 mM, pH 9.6", "description": "as §1, §2, §3, §4, §5"}, "[6]": {"biological_target": "lactate dehydrogenase isoenzyme LD-4, HM(3) (Homo sapiens, UniProt P00338+P07195)", "assay": "LD isoenzyme inactivation, automated analyzer rate assay (lactate/NAD, 340 nm)", "format": "biochemical", "conditions": "R1: guanadine thiocyanate 240 mM, Lithium L-Lactate 90mM, Tris 112.6 mM, pH 9.5; 37 degrees C; read-out: Activity After R1 Treatment (% of Total LDH Reagent)", "description": "as §1\n3. Mix and equilibrate sample to 37 degrees C. 4. Pipette and add 0.5 ml of R2 into sample test tube. Mix and measure optical density change at 340 nm for about 6 minutes. Calculate A/min. from 2 to 4 minutes. This is A/min for the sample. 5. Repeat steps 2 to 4 for the blank using 0.060 ml DI HOH as sample. This is A/min. for the blank. 6. […]"}, "[7]": {"conditions": "Reagent I: guanidine-HCL (concentration not given), no thiocyanate"}, "[8]": {"conditions": "R1: guanadine thiocyanate 240 mM, Lithium L-Lactate 90mM, Tris 112.6 mM, pH 9.5, 37 degrees C, read-out: Activity After R1 Treatment (% of Total LDH Reagent)"}, "[9]": {"conditions": "Reagent I: NaSCN 240 mM, no guanidine"}}, "note": "Counter-ions that a name gives are not always drawn. Like-named read-outs stand apart in the source and are kept apart here."}
{"compound": "N=C(N)N", "note": "[GUANIDINE HCL, guanidine HCl]", "values": [{"measurement": "LD-1 ISOENZYME REAGENT (Recovery)", "setting": "[1]; [7]", "result": "1102 ( 81.2 %)"}, {"measurement": "LD-1 ISOENZYME REAGENT (Recovery)", "setting": "[2]; LD-1 sample 1X, Reagent I: guanidine-HCL (concentration not given), no thiocyanate", "result": "202 (110 %)"}, {"measurement": "LD-1 ISOENZYME REAGENT (Recovery)", "setting": "[2]; LD-1 sample 2X, Reagent I: guanidine-HCL (concentration not given), no thiocyanate", "result": "394 (107 %)"}, {"measurement": "LD-1 ISOENZYME REAGENT (Recovery)", "setting": "[2]; LD-1 sample 4X, Reagent I: guanidine-HCL (concentration not given), no thiocyanate", "result": "759 (107 %)"}, {"measurement": "LD-1 ISOENZYME REAGENT (Recovery)", "setting": "[2]; LD-1 sample 6X, Reagent I: guanidine-HCL (concentration not given), no thiocyanate", "result": "1123 (106 %)"}, {"measurement": "LD-1 ISOENZYME REAGENT (Recovery)", "setting": "[3]; [7]", "result": "159 ( 9.50%)"}, {"measurement": "LD-1 ISOENZYME REAGENT (Recovery)", "setting": "[4]; [7]", "result": "826 (106 %)"}, {"measurement": "LD-1 ISOENZYME REAGENT (Recovery)", "setting": "[5]; [7]", "result": "1323 (102 %)"}]}
{"compound": "N=C(N)N", "note": "[guanadine thiocyanate]", "values": [{"measurement": "activity at 240000 µM", "setting": "[2]; pH 9.5, read-out: Activity After R1 Treatment (% of Total LDH Reagent), LD-1 sample 1x", "result": 98, "unit": "%"}, {"measurement": "activity at 240000 µM", "setting": "[2]; pH 9.5, read-out: Activity After R1 Treatment (% of Total LDH Reagent), LD-1 sample 2x", "result": 100, "unit": "%"}, {"measurement": "activity at 240000 µM", "setting": "[2]; pH 9.5, read-out: Activity After R1 Treatment (% of Total LDH Reagent), LD-1 sample 4x", "result": 100, "unit": "%"}, {"measurement": "activity at 240000 µM", "setting": "[2]; pH 9.5, read-out: Activity After R1 Treatment (% of Total LDH Reagent), LD-1 sample 6x", "result": 102, "unit": "%"}, {"measurement": "activity at 240000 µM", "setting": "[3]; [8]", "result": 0, "unit": "%"}, {"measurement": "activity at 240000 µM", "setting": "[4]; [8]", "result": 1.1, "unit": "%"}, {"measurement": "activity at 240000 µM", "setting": "[6]", "result": 0, "unit": "%"}]}
{"compound": "sodium thiocyanate [NaSCN]", "values": [{"measurement": "LD-1 ISOENZYME REAGENT (Recovery)", "setting": "[1]; [9]", "result": "725 ( 53 %)"}, {"measurement": "LD-1 ISOENZYME REAGENT (Recovery)", "setting": "[2]; LD-1 sample 1X, Reagent I: NaSCN 240 mM, no guanidine", "result": "252 (138 %)"}, {"measurement": "LD-1 ISOENZYME REAGENT (Recovery)", "setting": "[2]; LD-1 sample 2X, Reagent I: NaSCN 240 mM, no guanidine", "result": "499 (136 %)"}, {"measurement": "LD-1 ISOENZYME REAGENT (Recovery)", "setting": "[2]; LD-1 sample 4X, Reagent I: NaSCN 240 mM, no guanidine", "result": "964 (134 %)"}, {"measurement": "LD-1 ISOENZYME REAGENT (Recovery)", "setting": "[2]; LD-1 sample 6X, Reagent I: NaSCN 240 mM, no guanidine", "result": "1421 (134 %)"}, {"measurement": "LD-1 ISOENZYME REAGENT (Recovery)", "setting": "[3]; [9]", "result": "44 ( 2.6%)"}, {"measurement": "LD-1 ISOENZYME REAGENT (Recovery)", "setting": "[4]; [9]", "result": "905 (116 %)"}, {"measurement": "LD-1 ISOENZYME REAGENT (Recovery)", "setting": "[5]; [9]", "result": "1093 ( 85 %)"}]}
